Experiments:
[1] = tested on: bedstraw; test: Test B pre/postemergence bedstraw; format: in vivo, Galium aparine; details: Preemergence
Description: (§1) Seeds of bedstraw (Galium aparine), blackgrass (Alopecurus myosuroides), surinam grass (Brachiaria decumbens), cocklebur (Xanthium strumarium), corn (Zea mays), crabgrass (Digitaria sanguinalis), giant foxtail (Setaria faberii), morningglory (Ipomoea hederacea), pigweed (Amaranthus retroflexus), rape (Brassica napus), soybean (Glycine max), sugar beet (Beta vulgaris), velvetleaf (Abutilon theophrasti), wheat (Triticum aestivum), wild oat (Avena fatua) and purple nutsedge (Cyperus rotundus) tubers were planted and treated preemnergence with test chemicals formulated in a non-phytotoxic solvent mixture which included a surfactant.
(§2) At the same time, these crop and weed species were also treated with postemergence applications of test chemicals formulated in the same manner. Plants ranged in height from 2 to 18 cm (1- to 4-leaf stage) for postemergence treatments. Plant species in the flood test consisted of rice (Oryza sativa), smallflower flatsedge (Cyperus difformis), duck salad (Heteranthera limosa) and bamyardgrass (Echinochloa crus-galli) grown to the 2-leaf stage for testing. Treated plants and controls were maintained in a greenhouse for twelve to sixteen days, after which all species were compared to controls and visually evaluated. Plant response ratings, summarized in Table B, are based on a scale of 0 to 10 where 0 is no effect and 10 is complete control. A dash (−) response means no test result.

[2] = tested on: blackgrass; test: Test B pre/postemergence blackgrass; format: in vivo, Alopecurus myosuroides
Description: as §1, §2

[3] = tested on: surinam grass; test: Test B pre/postemergence surinam grass; format: in vivo, Brachiaria decumbens
Description: as §1, §2

[4] = tested on: cocklebur; test: Test B pre/postemergence cocklebur; format: in vivo, Xanthium strumarium
Description: as §1, §2

[5] = tested on: corn; test: Test B pre/postemergence corn; format: in vivo, Zea mays
Description: as §1, §2

[6] = tested on: crabgrass; test: Test B pre/postemergence crabgrass; format: in vivo, Digitaria sanguinalis
Description: as §1, §2

[7] = tested on: giant foxtail; test: Test B pre/postemergence giant foxtail; format: in vivo, Setaria faberii
Description: as §1, §2

[8] = tested on: morningglory; test: Test B pre/postemergence morningglory; format: in vivo, Ipomoea hederacea
Description: as §1, §2

[9] = tested on: pigweed; test: Test B pre/postemergence pigweed; format: in vivo, Amaranthus retroflexus
Description: as §1, §2

[10] = tested on: rape; test: Test B pre/postemergence rape; format: in vivo, Brassica napus
Description: as §1, §2

[11] = tested on: soybean; test: Test B pre/postemergence soybean; format: in vivo, Glycine max
Description: as §1, §2

[12] = tested on: sugar beet; test: Test B pre/postemergence sugar beet; format: in vivo, Beta vulgaris; details: for Plant response rating, Sugarbeets: Rate 250 g/ha
Description: as §1, §2

[13] = tested on: velvetleaf; test: Test B pre/postemergence velvetleaf; format: in vivo, Abutilon theophrasti; details: for Plant response rating, Velvetleaf: Rate 250 g/ha
Description: as §1, §2

[14] = tested on: wheat; test: Test B pre/postemergence wheat; format: in vivo, Triticum aestivum; details: for Plant response rating, Wheat: Rate 250 g/ha
Description: as §1, §2

[15] = tested on: wild oat; test: Test B pre/postemergence wild oat; format: in vivo, Avena fatua; details: for Plant response rating, Wild oats: Rate 250 g/ha
Description: as §1, §2

[16] = tested on: purple nutsedge; test: Test B pre/postemergence purple nutsedge; format: in vivo, Cyperus rotundus
Description: as §1, §2

[17] = Postemergence, Rate 62 g/ha, scale 0 to 10, 0 is no effect, 10 is complete control
[18] = Postemergence, Rate 125 g/ha, scale of 0 to 10 where 0 is no effect and 10 is complete control
[19] = Postemergence, Rate 250 g/ha, scale 0 to 10, 0 no effect, 10 complete control
[20] = Preemergence, Rate 62 g/ha, scale 0 to 10 (0 no effect, 10 complete control)
[21] = Preemergence, Rate 125 g/ha, scale 0 to 10 (0 no effect, 10 complete control)
[22] = Preemergence, Rate 250 g/ha, scale of 0 to 10 where 0 is no effect and 10 is complete control
[23] = Preemergence, Rate 500 g/ha, scale 0 (no effect) to 10 (complete control)
[24] = Rate 500 g/ha, Postemergence, scale 0 to 10, 0 no effect, 10 complete control
[25] = Rate 250 g/ha, Postemergence, scale 0 to 10, 0 is no effect, 10 is complete control
[26] = Preemergence, Rate 125 g/ha, 0 is no effect, 10 is complete control
[27] = Preemergence, scale of 0 to 10 where 0 is no effect and 10 is complete control
[28] = Postemergence, scale 0 to 10, 0 is no effect, 10 is complete control

CCCn1c(=O)on(C(=O)N(c2ccccc2)C(C)C)c1=O [Compound 92]
Bedstraw plant response rating ([1]; Rate 62 g/ha, scale 0 to 10 (0 no effect, 10 complete control)): 0 | Plant response rating, Bedstraw ([1]; Rate 125 g/ha, scale 0 to 10 (0 no effect, 10 complete control)): 0 | Plant response rating, Bedstraw ([1]; Rate 250 g/ha, scale of 0 to 10 where 0 is no effect and 10 is complete control): 0 | Bedstraw plant response rating ([1]; Rate 500 g/ha, scale 0 (no effect) to 10 (complete control)): 1 | Blackgrass plant response rating [2, 17]: 7 | Blackgrass plant response rating [2, 18]: 7 | Blackgrass plant response rating [2, 19]: 7 | Blackgrass plant response rating [2, 20]: 9 | Plant response rating, Blackgrass [2, 21]: 10 | Plant response rating, Blackgrass [2, 22]: 10 | Blackgrass plant response rating [2, 23]: 10 | Blackgrass plant response rating [2, 24]: 8 | B. signalgrass plant response rating [3, 17]: 3 | B. signalgrass plant response rating [3, 19]: 7 | B. signalgrass plant response rating [3, 20]: 10 | Plant response rating, B. signalgrass [3, 22]: 10 | B. signalgrass plant response rating ([3]; Rate 125 g/ha, Postemergence, scale 0 to 10, 0 no effect, 10 complete control): 5 | B. signalgrass plant response rating ([3]; Rate 500 g/ha, Postemergence, scale of 0 to 10 where 0 is no effect and 10 is complete control): 7 | Cocklebur plant response rating [4, 17]: 0 | Cocklebur plant response rating [4, 18]: 1 | Cocklebur plant response rating [4, 19]: 2 | Cocklebur plant response rating [4, 20]: 0 | Plant response rating, Cocklebur [4, 22]: 0 | Cocklebur plant response rating [4, 24]: 3 | Corn plant response rating [5, 17]: 0 | Corn plant response rating [5, 18]: 0 | Corn plant response rating [5, 19]: 0 | Corn plant response rating [5, 20]: 0 | Plant response rating, Corn [5, 21]: 2 | Plant response rating, Corn [5, 22]: 5 | Corn plant response rating [5, 23]: 9 | Corn plant response rating [5, 24]: 4 | Crabgrass plant response rating [6, 17]: 6 | Crabgrass plant response rating [6, 18]: 8 | Crabgrass plant response rating [6, 19]: 9 | Crabgrass plant response rating [6, 20]: 8 | Plant response rating, Crabgrass [6, 21]: 10 | Plant response rating, Crabgrass [6, 22]: 8 | Crabgrass plant response rating [6, 23]: 10 | Crabgrass plant response rating [6, 24]: 9 | Giant foxtail plant response rating [7, 17]: 8 | Giant foxtail plant response rating [7, 18]: 8 | Giant foxtail plant response rating [7, 19]: 9 | Giant foxtail plant response rating [7, 20]: 10 | Plant response rating, Giant foxtail [7, 21]: 10 | Plant response rating, Giant foxtail [7, 22]: 10 | Giant foxtail plant response rating [7, 23]: 10 | Giant foxtail plant response rating [7, 24]: 9 | Morningglory plant response rating [8, 17]: 7 | Morningglory plant response rating [8, 18]: 8 | Morningglory plant response rating [8, 19]: 10 | Morningglory plant response rating [8, 20]: 0 | Plant response rating, Morningglory [8, 21]: 0 | Plant response rating, Morningglory [8, 22]: 0 | Morningglory plant response rating [8, 23]: 3 | Morningglory plant response rating [8, 24]: 10 | Redroot pigweed plant response rating [9, 17]: 2 | Redroot pigweed plant response rating [9, 18]: 3 | Redroot pigweed plant response rating [9, 20]: 2 | Plant response rating, Redroot pigweed [9, 21]: 7 | Plant response rating, Redroot pigweed [9, 22]: 9 | Redroot pigweed plant response rating [9, 23]: 10 | Plant response rating, Redroot pigweed [9, 25]: 4 | Redroot pigweed plant response rating [9, 24]: 5 | Rape plant response rating [10, 17]: 2 | Rape plant response rating [10, 18]: 3 | Rape plant response rating [10, 19]: 4 | Rape plant response rating [10, 20]: 4 | Plant response rating, Rape [10, 21]: 9 | Plant response rating, Rape [10, 22]: 10 | Rape plant response rating [10, 23]: 10 | Rape plant response rating [10, 24]: 6 | Soybean plant response rating [11, 17]: 3 | Soybean plant response rating [11, 18]: 3 | Soybean plant response rating [11, 20]: 0 | Plant response rating, Soybean [11, 21]: 3 | Plant response rating, Soybean [11, 22]: 4 | Soybean plant response rating [11, 23]: 9 | Plant response rating, Soybean [11, 25]: 3 | Soybean plant response rating [11, 24]: 5 | Sugarbeets plant response rating [12, 17]: 1 | Sugarbeets plant response rating [12, 18]: 4 | Sugarbeets plant response rating [12, 20]: 2 | Sugarbeets plant response rating (0 to 10 scale) [12, 26]: 6 | Plant response rating, Sugarbeets [12, 27]: 8 | Sugarbeets plant response rating [12, 23]: 9 | Plant response rating, Sugarbeets [12, 28]: 6 | Sugarbeets plant response rating [12, 24]: 6 | Velvetleaf plant response rating [13, 17]: 0 | Velvetleaf plant response rating [13, 18]: 0 | Velvetleaf plant response rating [13, 20]: 4 | Velvetleaf plant response rating (0 to 10 scale) [13, 26]: 6 | Plant response rating, Velvetleaf [13, 27]: 6 | Velvetleaf plant response rating [13, 23]: 8 | Plant response rating, Velvetleaf [13, 28]: 0 | Wheat plant response rating [14, 17]: 0 | Wheat plant response rating [14, 18]: 2 | Wheat plant response rating [14, 20]: 3 | Wheat plant response rating (0 to 10 scale) [14, 26]: 6 | Plant response rating, Wheat [14, 27]: 7 | Wheat plant response rating [14, 23]: 7 | Plant response rating, Wheat [14, 28]: 5 | Wheat plant response rating [14, 24]: 6 | Wild oats plant response rating [15, 17]: 0 | Wild oats plant response rating [15, 18]: 1 | Wild oats plant response rating [15, 20]: 7 | Wild oats plant response rating (0 to 10 scale) [15, 26]: 8 | Plant response rating, Wild oats [15, 27]: 9 | Wild oats plant response rating [15, 23]: 10 | Plant response rating, Wild oats [15, 28]: 1 | Wild oats plant response rating [15, 24]: 5 | Nutsedge plant response rating [16, 17]: 0 | Nutsedge plant response rating [16, 18]: 0 | Nutsedge plant response rating [16, 19]: 0 | Nutsedge plant response rating [16, 20]: 0 | Plant response rating, Nutsedge [16, 21]: 0 | Plant response rating, Nutsedge [16, 22]: 0 | Nutsedge plant response rating [16, 23]: 0 | Nutsedge plant response rating [16, 24]: 2
